Source: patent US20240002424A1, “HEXOSAMINE COMPOUNDS AND METHODS THEREOF” (National Institute of Immunology, priority 2021, published 2024)

Experiments:
Assay type in all cases: cell-based, human
Jurkat cells = assay: NeuAz expression on the cell surface by SPAAC with DBCO-Cy5 and flow cytometry, competition with Ac4ManNAz (1c); conditions: for NeuAz expression upon co-incubation with Ac4ManNAz: Ac4ManNAz (Z) 50 μM plus analogue at 10, 25, 50 μM; for NeuAz expression upon co-incubation with Ac4ManNAz / reduction in NeuAz expression upon co-incubation: 24 h; for reduction in NeuAz expression upon co-incubation: 0-50 μM with 1c 50 μM, simultaneous addition
Protocol: FIG. 5 illustrates competitive processing by compounds of the present invention (ManNAc compounds). ManNAc compounds competitively reduce the expression of N-azidoacetyl-D-neuraminic acid (NeuAz)-carrying sialoglycans through the metabolic processing of Ac4ManNAz. Jurkat (human T-lymphoma) cells were incubated with Ac4ManNAz (Z) (50 μM) alone, co-incubated with GL-2, GL-3, MA-2, or MA-3 (at various concentrations such as 10,
25, and 50 μM) for 24 h. Expression of N-azidoacetyl-D-neuraminic acid (NeuAz) on the cell surface sialoglycans was estimated using strain-promoted azide-alkyne cycloaddition (SPAAC) with DBCO-Cy5 and analyzed by flow cytometry. […] GL-2 was used for comparative study and the structure of this compound is as below.
Jurkat cells (3.0×10^5 cells/mL; 2.5 mL per well in 6-well plates) in complete medium were treated with either vehicle (D) or Compound 1c; Untreated Jurkat cells, without addition of vehicle, were also included as additional controls. Cells were harvested at 48 h, washed thrice with PBS (3×0.5 mL) (3000×g, 2.0 min). Prior to the last wash cells were counted and were aliquoted to 1.0×10^6 cells per sample in 1.5 mL microcentrifuge tubes and centrifuged. The cells were gently resuspended in PBS ([…]) and treated with DBCO-Cy5 ([…]) and incubated at 37° C. (on a Torrey-Pines dry heating bath with mild shaking). After one hour, the cells were washed using FSB (0.5 mL, 3000×g, 2.0 min, room temperature), resuspended in PBS (250 mL), treated with PI (2.5 mg/mL), and analyzed using BD FACSCanto and FACSDiva Version 6.1.3. The cells were gated for PI-negative population for 10,000 events. Two replicate samples were prepared for each conditions and each sample was counted twice.
Estimation of NeuAz expression by 1c in the presence of peracetylated ManNAc analogues: Jurkat cells (3.0×10^5 cells/mL in 3.0 mL per well in 6-well plates) were incubated with (i) D, (ii) 1a, 1b, 1c, or 1d alone (50 mM) or (iii) 1a, 1b, or 1d (50 mM) in combination with 1c (50 mM). After 24 h, cells were harvested, washed using FSB, aliquoted to 5.0×10^5 cells per sample, and processed as mentioned above for estimation of NeuAz expression using DBCO-Cy5 ([…]). Experiments using HL-60 cells were performed using the same procedure. […]
Effect of GlcNAc and ManNAc analogues on NeuAz expression: Jurkat cells were treated with 1a, 1b, 2a, or 2b (10, 25, and 50 mM for each analogue) in combination with 1c (50 mM). Cells treated with 1c (50 mM) alone were considered as a reference. After 24 h, cells were harvested, processed, labelled with DBCO-Cy5 ([…]), and analysed by flow cytometry as mentioned above.
In order to evaluate the metabolism, Jurkat (human T-lymphoma) cells were selected and incubated with ManNAc analogues either alone (50 μM) or in combination with 1c (50 μM) for 48 h. Expression of NeuAz on cell surface was estimated by flow cytometry through the copper-free bio-orthogonal strain-promoted azide-alkyne cycloaddition (SPAAC) reaction using dibenzocyclooctyne-Cy5 (DBCO-Cy5). The conditions for click reaction were optimized for various concentrations of DBCO-Cy5 and time course of SPAAC reaction in Jurkat cells. Based on the optimization results, incubation time of 30 min at 37° C. for 5.0×10^5 cells (pre-incubated with 1c for 48 h) with 20 μM of DBCO-Cy5 in 100 μL total volume for experiments with ManNAc analogues was chosen. […] In order to test the dose-dependency of this inhibitory effect on NeuAz expression and to establish competitive metabolic processing, Jurkat cells were first treated with either 1a or 1b (0-50 μM) followed by addition of 1c (50 μM) at 12 h and estimation of NeuAz at 48 h. As expected, the suppression of NeuAz expression was substantially higher when added with a 12 h delay compared to simultaneous addition, in a dose-dependent manner. […] By contrast simultaneous addition resulted only in a 10% reduction of NeuAz for both 1a and 1b (FIG. 6C and FIG. 7B).

HL-60 cells [1] = assay: Cell density as a measure of proliferation/cytotoxicity; conditions: 100 μM, cell density measured at 24, 48, and 72 h
HL-60 cells [2] = assay: Cell surface sialyl-Lewis-X (CD15s) by anti-CD15s (CSLEX1) flow cytometry; conditions: 50 μM, 24 h
Protocol: Effect of ManNAc analogues on the expression of sialyl-Lewis-X and Lewis-X: HL-60 cells (3.0×10^5 cells/mL in 2.0 mL complete medium in 6 well plate) were treated with D (vehicle), 1a, 1b, 1c, 1d, 1e, 1f, or 1g (50 PM), along with untreated (U) control. After 24 h, cells were harvested and washed with PBS (3×0.5 mL, 3000×g, 3.0 min at room temperature). Prior to last wash, cells were counted using Z2 coulter counter and aliquoted at 2.5×10^5 cells per sample and stained with either mouse anti-human CD15s (CSLEX1) (1.25 μg/mL) or mouse anti-human CD15 (HI98) (2.5 μg/mL) in HEPES/CaCl2) buffer (30 mM HEPES, 110 mM NaCl, 10 mM KCl, 2 mM MgCl2, 10 mM glucose, 1.5 mM CaCl2) containing 0.1% bovine serum albumin, pH 7.3) (total volume of 100 μL) for 30 min at 4° C. Cells were washed with HEPES/CaCl2 buffer (2×0.5 mL) and stained with AlexaFluor488-conjugated anti-mouse IgM (2.5 μg/mL) (for both CD15s and CD15) in 100 μL HEPES/CaCl2 for 30 min at 4° C. Cells were washed with HEPES/CaCl2 buffer (2×0.5 mL), resuspended in PBS (0.2 mL), treated with PI (2.5 μg/ml) and analysed by BD FACSVerse. Samples treated with (i) isotype antibodies followed by secondary antibody and (ii) secondary antibody alone were prepared as controls. Single Cells were gated for PI-negative population for 10,000 events and analysed by flow cytometry. Two replicate samples were prepared for each condition and each sample was counted twice. Three independent experiments were performed. Data was analysed using FlowJo V10. For plotting graph and calculation of significant probability ‘p’ values, two-way ANOVA with Dunnett's multiple comparison tests was employed in GraphPad Prism 8.
Time course of CD15s expression: HL-60 cells (3.0×10^5 cells/mL in 2.5 mL complete medium in 6-well plates) were incubated with D, 1a, 1b, or 1d (50 mM). At each time point, from day 1 to day 6, the cells were harvested from the entire contents of the well, washed, and aliquoted to 5.0×10^5 cells per sample, and immuno-stained using anti-CD15s (CSLEX1) antibody as mentioned above. On day 3, 4, and 5 complete media (1.0 mL) was added to each remaining well in order to compensate for media exhaustion. No contents were removed from the well during the period.

HL-60 cells [3] = assay: Total and glycoside bound sialic acids by periodate-resorcinol assay; conditions: 100 μM, 48 h
Protocol: Total sialic acids were measured following reported procedures. HL-60 cells (3.0×10^5 cells/mL in 10 mL complete medium in 10 cm diameter Petri dishes) were incubated with D, 1a, 1b, 1c, 1d, 1e, 1f, 1g, 2a, or 2b (100 mM each), along with untreated (U) controls. After 48 h, cells were harvested, washed with PBS (3×5.0 mL; 3000×g, for 2.0 min), aliquoted to 2×10^6 cells per sample and resuspended in PBS (150 mL) in 1.5 mL microcentrifuge tubes. Cells were lyzed by three freeze-thaw cycles and the total lysates were subjected to periodate-resorcinol assay. Briefly, lysates (150 mL) were treated with 0.4 M aqueous periodic acid (6.67 mM) or (2.5 mL) and incubated either on ice for 15 min (for measurement of total sialic acids) or at 37° C. for 1.0 h (for measurement of glycoconjugate bound sialic acids). About 10 mL of reagent cocktail was prepared using 6% w/v of aqueous resorcinol (1.0 mL), 2.5 mM copper (II) sulfate (1.0 mL), 44% of concentrated hydrochloric acid (4.4 mL), and water (3.6 mL). The mixture was then treated with the reagent cocktail (250 mL per sample), boiled at 100° C. for 10 min, rapidly quenched in an ice-bath and treated with tert-butanol (250 mL). The contents were centrifuged and the supernatants were aliquoted (200 mL) into 96-well plates and the absorbance at 630 nm was measured. At least three replicates were prepared for each condition.

HL-60 cells [4] = assay: NeuAz expression by SPAAC with DBCO-Cy5 and flow cytometry, competition with 1c; conditions: 50 μM with 1c 50 μM, 24 h
Protocol: Estimation of NeuAz expression by 1c in the presence of peracetylated ManNAc analogues: Jurkat cells (3.0×10^5 cells/mL in 3.0 mL per well in 6-well plates) were incubated with (i) D, (ii) 1a, 1b, 1c, or 1d alone (50 mM) or (iii) 1a, 1b, or 1d (50 mM) in combination with 1c (50 mM). After 24 h, cells were harvested, washed using FSB, aliquoted to 5.0×10^5 cells per sample, and processed as mentioned above for estimation of NeuAz expression using DBCO-Cy5 ([…]). Experiments using HL-60 cells were performed using the same procedure.
Having confirmed metabolic acceptability in Jurkat cells, the compounds were tested on HL-60 (human acute myeloid leukemia) cells which are a reliable model for neutrophil adhesion. The effect on competitive suppression of NeuAz expression was studied using 1c as a reporter. HL-60 cells were treated with 1c either alone (50 μM) or in combination with ManNAc analogues (50 μM), including the straight chain derivatives, for 24 h followed by DBCO-Cy5 ligation. […] The decreasing ability of linear alkyl moieties (1d-1g), as a function of chain length, for suppression of NeuAz expression is in contrast to the cycloalkyl moieties. […] Similarly, 1a induced a reduction of 40% compared to only a 15% reduction by 1f.

Compound	NeuAz expression upon co-incubation with Ac4ManNAz (Jurkat cells)	decrease in cell density (HL-60 cells [1]) [%]	increase in binding of CSLEX1 antibody (sLeX) compared to controls (HL-60 cells [2]) [fold]	glycoside bound sialic acid levels (in words) (HL-60 cells [3])	ratio of total sialic acids to glycoside bound sialic acids vs untreated cells (HL-60 cells [3])	total sialic acid levels (in words) (HL-60 cells [3])	reduction in NeuAz expression upon co-incubation (Jurkat cells)	also measured
CC(=O)OC[C@H]1OC(OC(C)=O)[C@@H](NC(=O)C2CCC2)[C@@H](OC(C)=O)[C@@H]1OC(C)=O (mixture of isomers) [Compound 1b, (3S,4R,5S,6R)-6-(acetoxymethyl)-3-(cyclobutanecarboxamido)tetrahydro-2H-pyran-2,4,5-triyl triacetate]	reduced competitively in a dose-dependent manner							
CC(=O)OC[C@H]1OC(OC(C)=O)[C@H](NC(=O)C2CCC2)[C@@H](OC(C)=O)[C@@H]1OC(C)=O (mixture of isomers) [Compound 2b, (3R,4R,5S,6R)-6-(acetoxymethyl)-3-(cyclobutanecarboxamido)tetrahydro-2H-pyran-2,4,5-triyl triacetate]	not							
CC(=O)OC[C@H]1O[C@H](OC(C)=O)[C@@H](NC(=O)CN=[N+]=[N-])[C@@H](OC(C)=O)[C@@H]1OC(C)=O [Compound 1c, 1,3,4,6-tetra-O-acetyl-2-azidoacetylamino-2-deoxy-α-D-mannopyranose]		~10	1.4	comparable to untreated cells				NeuAz expression / DBCO-Cy5 signal, compound alone (Jurkat cells; 50 μM alone, 48 h): robust expression of NeuAz
CCC(=O)N[C@@H]1[C@@H](OC(C)=O)O[C@H](COC(C)=O)[C@@H](OC(C)=O)[C@@H]1OC(C)=O [Compound 1e, 1,3,4,6-tetra-O-acetyl-2-(1-propanoyl)amino-2-deoxy-α-D-mannopyranose]			~2.5		higher ratios of free sialic acid			NeuAz expression with respect to 1c alone (100%) (HL-60 cells [4]): 65%; suppression of NeuAz expression (in words) (HL-60 cells [4]): significant suppression; increase in glycoside bound sialic acid levels (HL-60 cells [3]): ~10%; increase in total sialic acid levels vs untreated cells (HL-60 cells [3]): 2.3 fold
CC(=O)OC[C@H]1O[C@@H](OC(C)=O)[C@H](NC(=O)C2CC2)[C@@H](OC(C)=O)[C@@H]1OC(C)=O [Compound 2a, 1,3,4,6-tetra-O-acetyl-2-cyclopropanoylamino-2-deoxy-β-D-glucopyranose]	not	~10		comparable to untreated cells	lower ratios	comparable to untreated cells	negligible reduction	
CC(=O)OC[C@H]1OC(OC(C)=O)[C@H](NC(=O)C2CCC2)[C@@H](OC(C)=O)[C@@H]1OC(C)=O (stereo partly drawn) [Compound 2b, (3R,4R,5S,6R)-6-(acetoxymethyl)-3-(cyclobutanecarboxamido)tetrahydro-2H-pyran-2,4,5-triyl triacetate]		~10		comparable to untreated cells	lower ratios	comparable to untreated cells	negligible reduction	
